Laboratory results from patent publication US11613525B2 (CTXT PTY LIMITED, priority 2018, dated 2023).
Where two headings read alike, the source gives them in different places.

Experiments:
[1] = biological target: T1, human STING (HAQ) (Homo sapiens, UniProt Q86WV6, G230A/H232R/R293Q); test: biochemical; assay type: binding; conditions: for ΔTm at 100 µM: read-out: DSF huSTING (HAQ) ΔTm (° C.)
Method: (§1) DSF monitors thermal unfolding of protein in the presence of a fluorescent dye and is typically performed using a real-time PCR instrument. The temperature at which a protein unfolds is measured by an increase in the fluorescence of a dye with affinity for hydrophobic parts of the protein that are gradually exposed during unfolding. The fluorescence of the dye is quenched in aqueous environments, but when the dye associates with hydrophobic sites on the unfolded protein, its fluorescence increases. The fluorescence intensity is plotted as a function of the temperature, generating a sigmoidal curve that can be described by a two-state transition. The inflection point of the transition curve (Tm) is calculated using simple equations such as that of Boltzman.
(§2) Sealed plates were then placed into a Bio-Rad CFX96/C1000 thermocycler and FRET scanning mode (λ^excitation of 490 nm and reads at λ^emission of 570 nm) was used to measure fluorescence intensity. […] The melting point (Tm) obtained for STING protein alone was subtracted from Tm obtained for protein incubated with ligand to generate ΔTm values listed in the table below.
(§3) These additional compounds were tested as described above, however the protein concentration was 2 μM.

[2] = biological target: huSTING (HAQ) (Homo sapiens (Human), UniProt Q86WV6, G230A/H232R/R293Q/R71H); test: THP-1 reporter cell line assay, THP-1 STING Lucia ISG cells; assay type: cell-based
Chain of huSTING (HAQ) (Q86WV6 whole entry R71H/G230A/H232R/R293Q): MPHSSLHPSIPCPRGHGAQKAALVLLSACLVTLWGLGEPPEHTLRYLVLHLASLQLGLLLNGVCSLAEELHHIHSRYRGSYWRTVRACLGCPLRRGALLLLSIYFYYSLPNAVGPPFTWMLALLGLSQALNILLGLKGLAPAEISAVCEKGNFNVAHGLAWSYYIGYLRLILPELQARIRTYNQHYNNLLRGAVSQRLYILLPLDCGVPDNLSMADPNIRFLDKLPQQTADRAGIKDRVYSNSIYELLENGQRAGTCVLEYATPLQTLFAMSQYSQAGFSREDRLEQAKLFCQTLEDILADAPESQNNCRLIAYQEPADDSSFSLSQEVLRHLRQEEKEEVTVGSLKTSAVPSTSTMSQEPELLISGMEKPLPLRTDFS

[3] = biological target: T2, huSTING (WT) (Homo sapiens (Human), UniProt Q86WV6, H232R); test: THP-1 reporter cell line assay, THP-1-Dual KI-hSTING-R232 cells; assay type: cell-based
Target sequence in this assay (Q86WV6 whole entry H232R): as the sequence (Q86WV6 whole entry R71H/G230A/H232R/R293Q) above, with H71R, A230G, Q293R counted along it

[4] = biological target: T1, human STING (HAQ); conditions: read-out: SPR (HAQ) KD; 25° C.
[5] = biological target: T2, huSTING (WT); test: Differential scanning fluorimetry (DSF), huSTING (WT); assay type: binding; conditions: for ΔTm at 100 µM: read-out: DSF huSTING (WT) ΔTm (° C.)
Method: as §1, §2, §3
Target sequence in this assay (Q86WV6 other isoform, or with tags, fused parts or gaps, stated change not applied): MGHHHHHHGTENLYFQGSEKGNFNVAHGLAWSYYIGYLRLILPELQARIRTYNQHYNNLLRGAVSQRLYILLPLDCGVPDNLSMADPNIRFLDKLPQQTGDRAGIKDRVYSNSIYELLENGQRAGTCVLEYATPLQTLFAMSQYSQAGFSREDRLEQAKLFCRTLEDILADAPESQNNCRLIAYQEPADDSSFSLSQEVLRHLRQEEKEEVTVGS

[6] = 1 μM protein, compound at 100 μM
[7] = THP-1 STING Lucia ISG cells, 24 h, top concentration 50 μM, read-out: Cellular EC50 huSTING (HAQ)
[8] = read-out: Cellular EC50 huSTING (WT)
[9] = compound 100 μM, protein concentration 2 μM
[10] = THP-1 STING Lucia ISG cells, modified method, top concentration 40 μM, pin tool, EnVision, read-out: Cellular EC50 huSTING (HAQ)

T1 sequence (Q86WV6 whole entry G230A/H232R/R293Q, looked up): as the sequence (Q86WV6 whole entry R71H/G230A/H232R/R293Q) above, with H71R counted along it

Row | SMILES | EC50 [2, 7] [µM] | EC50 [3, 8] [µM] | ΔTm at 100 µM [1] [°C] | ΔTm at 100 µM [5, 6] [°C] | also measured
1 | NC(=O)c1ccc(OCc2c(C(=O)OCc3ccccc3)sc3cccc(F)c23)cc1 [Example 3, Benzyl 3-((4-carbamoylphenoxy)methyl)-4-fluorobenzo[b]thiophene-2-carboxylate] | 2.94 | > 50 | – | – | DSF huSTING (HAQ) ΔTm (° C.) [1, 6]: −0.47 °C; Kd [4]: 3500 µM
2 | CCOC(=O)c1sc2ccccc2c1COc1ccc(C(N)=O)cc1 [Example 5, Ethyl 3-((4-carbamoylphenoxy)methyl)benzo[b]thiophene-2-carboxylate] | 8.22 | > 50 | -0.48 | 0.07 | –
3 | CCOC(=O)c1sc2cc(Cl)ccc2c1COc1ccc(C(N)=O)cc1 [Example 9, Ethyl 3-((4-carbamoylphenoxy)methyl)-6-chlorobenzo[b]thiophene-2-carboxylate] | > 50 | > 50 | 0.71 | 0.51 | –
4 | CCOC(=O)c1sc2c(Cl)cccc2c1COc1ccc(C(N)=O)cc1 [Example 11, Ethyl 3-((4-carbamoylphenoxy)methyl)-7-chlorobenzo[b]thiophene-2-carboxylate] | 16.2 | 25.6 | 0.29 | 0.13 | –
5 | CCOC(=O)c1sc2ccc(Cl)cc2c1COc1ccc(C(N)=O)cc1 [Example 13, Ethyl 3-((4-carbamoylphenoxy)methyl)-5-chlorobenzo[b]thiophene-2-carboxylate] | > 50 | > 50 | -0.15 | -0.59 | –
6 | COc1cc(C(N)=O)cc(OC)c1OCc1c(C(=O)O)sc2cccc(Cl)c12 [Example 42, 3-((4-Carbamoyl-2,6-dimethoxyphenoxy)methyl)-4-chlorobenzo[b]thiophene-2-carboxylic acid] | – | – | – | – | DSF huSTING (HAQ) ΔTm (° C.) [1, 6]: 2.83 °C; ΔTm at 100 µM [5]: -0.64 °C; Kd [4]: 80.5 µM
7 | CCOC(=O)c1sc2cccc(F)c2c1COc1ccc(C(N)=O)cc1F [Example 58, Ethyl 3-((4-carbamoyl-2-fluorophenoxy)methyl)-4-fluorobenzo[b]thiophene-2-carboxylate] | 9.19 | 27.7 | 0.43 | – | Kd [4]: > 10000 µM
8 | NC(=O)c1ccc(OCc2c(C(=O)O)sc3cccc(Cl)c23)c(F)c1F [Example 67, 3-((4-Carbamoyl-2,3-difluorophenoxy)methyl)-4-chlorobenzo[b]thiophene-2-carboxylic acid] | > 50 | > 50 | 11.1 | 3.04 | –
9 | NC(=O)c1cc(F)c(OCc2c(C(=O)O)sc3cccc(Cl)c23)c(F)c1 [Example 69, 3-((4-Carbamoyl-2,6-difluorophenoxy)methyl)-4-chlorobenzo[b]thiophene-2-carboxylic acid] | – | – | – | – | DSF huSTING (HAQ) ΔTm (° C.) [1, 6]: 22.08 °C; ΔTm at 100 µM [5]: 9.49 °C
10 | NC(=O)c1ccc(NCc2c(C(=O)O)sc3cccc(Cl)c23)cc1 [Example 76, 3-(((4-Carbamoylphenyl)amino)methyl)-4-chlorobenzo[b]thiophene-2-carboxylic acid] | 2.68 | 0.217 | 2.43 | -2.72 | –
11 | Cc1cccc2sc(C(=O)O)c(COc3ccc(C(N)=O)cc3)c12 [Example 78, 3-((4-Carbamoylphenoxy)methyl)-4-methylbenzo[b]thiophene-2-carboxylic acid] | > 50 | > 50 | 16 | 6.62 | –
12 | NC(=O)c1cc(F)c(OCc2c(C(=O)O)sc3c(F)ccc(F)c23)c(F)c1 [Example 80, 3-((4-Carbamoyl-2,6-difluorophenoxy)methyl)-4,7-difluorobenzo[b]thiophene-2-carboxylic acid] | 38.6 | > 50 | 14.9 | 6.69 | –
13 | NC(=O)c1ccc(OCc2c(C(=O)O)sc3c(F)ccc(F)c23)cc1 [Example 82, 3-((4-Carbamoylphenoxy)methyl)-4,7-difluorobenzo[b]thiophene-2-carboxylic acid] | > 50 | > 50 | 9.29 | 3.15 | –
14 | NC(=O)c1ccc(OCc2c(C(=O)O)sc3ccc(F)c(Cl)c23)cc1 [Example 84, 3-((4-Carbamoylphenoxy)methyl)-4-chloro-5-fluorobenzo[b]thiophene-2-carboxylic acid] | > 50 | > 50 | 6.48 | 0.18 | –
15 | NC(=O)c1cc(F)c(OCc2c(C(=O)O)sc3ccc(F)c(Cl)c23)c(F)c1 [Example 86, 3-((4-Carbamoyl-2,6-difluorophenoxy)methyl)-4-chloro-5-fluorobenzo[b]thiophene-2-carboxylic acid] | > 50 | > 50 | 10.1 | 3.33 | –
16 | CCOC(=O)c1sc2cccc(F)c2c1CCc1ccc(C(N)=O)cc1 [Example 87, Ethyl 3-(4-carbamoylphenethyl)-4-fluorobenzo[b]thiophene-2-carboxylate] | > 50 | > 50 | – | – | DSF huSTING (HAQ) ΔTm (° C.) [1, 6]: 0.54 °C; Kd [4]: 3000 µM
17 | CN(C)C(=O)COC(=O)c1sc2cccc(Cl)c2c1COc1c(F)cc(C(N)=O)cc1F [Example 127, 2-(Dimethylamino)-2-oxoethyl 3-((4-carbamoyl-2,6-difluorophenoxy)methyl)-4-chlorobenzo[b]thiophene-2-carboxylate] | – | 0.229 | – | – | DSF huSTING (WT) ΔTm (° C.) [5, 9]: −2.44 °C; EC50 [2, 10]: 0.026 µM
18 | CCOP(=O)(COC(=O)c1sc2cccc(Cl)c2c1COc1c(F)cc(C(N)=O)cc1F)OCC [Example 143, (Diethoxyphosphoryl)methyl 3-((4-carbamoyl-2,6-difluorophenoxy)methyl)-4-chlorobenzo[b]thiophene-2-carboxylate] | – | – | – | – | DSF huSTING (HAQ) ΔTm (° C.) [1]: −2.10 °C; DSF huSTING (WT) ΔTm (° C.) [5]: −1.93 °C; EC50 [2]: 0.018 µM; EC50 [3]: 0.381 µM
19 | NC(=O)CNC(=O)c1sc2cccc(Cl)c2c1COc1c(F)cc(C(N)=O)cc1F [Example 148, N-(2-Amino-2-oxoethyl)-3-((4-carbamoyl-2,6-difluorophenoxy)methyl)-4-chlorobenzo[b]thiophene-2-carboxamide] | – | > 40 | – | – | DSF huSTING (WT) ΔTm (° C.) [5, 9]: −0.37 °C; EC50 [2, 10]: 4.07 µM
20 | COCCOC(=O)c1sc2cccc(Cl)c2c1COc1c(F)cc(C(N)=O)cc1F [Example 158, 2-Methoxyethyl 3-((4-carbamoyl-2,6-difluorophenoxy)methyl)-4-chlorobenzo[b]thiophene-2-carboxylate] | – | – | – | – | DSF huSTING (HAQ) ΔTm (° C.) [1]: −1.58 °C; DSF huSTING (WT) ΔTm (° C.) [5]: −1.90 °C; EC50 [2]: 0.132 µM; EC50 [3]: 0.949 µM
21 | CC(=O)NCCOC(=O)c1sc2cccc(Cl)c2c1COc1c(F)cc(C(N)=O)cc1F [Example 159, 2-Acetamidoethyl 3-((4-carbamoyl-2,6-difluorophenoxy)methyl)-4-chlorobenzo[b]thiophene-2-carboxylate] | – | 0.325 | – | – | DSF huSTING (WT) ΔTm (° C.) [5, 9]: −1.02 °C; EC50 [2, 10]: 0.044 µM
22 | COC(=O)NCCOC(=O)c1sc2cccc(Cl)c2c1COc1c(F)cc(C(N)=O)cc1F [Example 160, 2-((Methoxycarbonyl)amino)ethyl 3-((4-carbamoyl-2,6-difluorophenoxy)methyl)-4-chlorobenzo[b]thiophene-2-carboxylate] | – | 0.298 | – | – | DSF huSTING (WT) ΔTm (° C.) [5, 9]: −1.05 °C; EC50 [2, 10]: 0.035 µM
23 | COC(=O)N(C)CCOC(=O)c1sc2cccc(Cl)c2c1COc1c(F)cc(C(N)=O)cc1F [Example 161, 2-((Methoxycarbonyl)(methyl)amino)ethyl 3-((4-carbamoyl-2,6-difluorophenoxy)methyl)-4-chlorobenzo[b]thiophene-2-carboxylate] | – | 0.669 | – | – | DSF huSTING (WT) ΔTm (° C.) [5, 9]: −1.76 °C; EC50 [2, 10]: 0.062 µM
24 | COCCCOC(=O)c1sc2cccc(Cl)c2c1COc1c(F)cc(C(N)=O)cc1F [Example 162, 3-Methoxypropyl 3-((4-carbamoyl-2,6-difluorophenoxy)methyl)-4-chlorobenzo[b]thiophene-2-carboxylate] | – | 0.302 | – | – | DSF huSTING (WT) ΔTm (° C.) [5, 9]: −1.01 °C; EC50 [2, 10]: 0.041 µM
25 | NC(=O)c1ccc(OCc2c(C(=O)NCCc3ccccc3)sc3cccc(Br)c23)cc1 [Example 167, 4-Bromo-3-((4-carbamoylphenoxy)methyl)-N-phenethylbenzo[b]thiophene-2-carboxamide] | – | 25.6 | – | – | DSF huSTING (WT) ΔTm (° C.) [5, 9]: 2.51 °C; EC50 [2, 10]: 23.2 µM
